# Laboratory results published in patent US20240301319A1, “PERFUMING COMPOSITIONS” (FIRMNICH SA, priority 2017, published 2024).
# Where two headings read alike, the source gives them in different places.
# Assays:
# [1] = Volatility of perfuming compounds (Tables 4 to 10), with top/middle/bottom note type; type: physicochemical
# Outline: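 Volatility is expressed in μg/l in air. Top notes are 70,000 to 100 μg/l, middle notes 99 to 50 μg/l, and bottom notes 49 to 0.1 μg/l. Compounds are grouped by olfactive family: watery, green, fruity, citrus, sweet, gourmand and woody.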
# [2] = Odor threshold and odor value of perfuming compounds (Tables 4 to 10)
# [3] = Table 4, watery note, top, middle or bottom note
# [4] = note type (Top/Middle/Bottom) by volatility, perfuming compounds having a green note
# [5] = perfuming compounds having a green note
# [6] = Table 4, watery note, equals volatility divided by odor threshold
# [7] = Table 6, perfuming compounds having a fruity note
# [8] = Table 6, perfuming compounds having a fruity note, note type by volatility
# [9] = Table 7, citrus note, top, middle or bottom note
# [10] = Table 7, citrus note, equals volatility divided by odor threshold
# [11] = Table 8, perfuming compounds having a sweet note
SMILES,"Volatility (μg/l air) ([1]; Table 4, watery note)","Type [1, 3]","Type [1, 4]","Volatility (μg/l air) [1, 5] [μg/l air]","Odor Threshold (μg/l air) ([2]; Table 4, watery note)","Odor Value [2, 6]","Odor Threshold (μg/l air) [2, 5] [μg/l air]","Volatility [1, 7] [μg/l air]","Type [1, 8]",also measured
"CC(C)(C)c1ccc2c(c1)OCC(=O)CO2 [7-(2-methyl-2-propanyl)-2H-1,5-benzodioxepin-3(4H)-one]",4.37,bottom (perfuming compounds having a volatility ranging from 49 to 0.1 μg/l in air are referred to as “bottom notes”),Bottom,4.37,1.53E−04,2.85E+04,1.53E−04,,,
"CC(C)c1ccc2c(c1)OCC(=O)CO2 [7-ISOPROPYL-2H,4H-1,5-BENZODIOXEPIN-3-ONE]",56.74,middle (perfuming compounds having a volatility ranging from 99 to 50 μg/l in air are referred to as “middle notes”),,,3.20E−06,1.77E+07,,,,
"CCCc1ccc2c(c1)OCC(=O)CO2 [7-PROPYL-2H,4H-1,5-BENZODIOXEPIN-3-ONE]",4.85,bottom (perfuming compounds having a volatility ranging from 49 to 0.1 μg/l in air are referred to as “bottom notes”),Bottom,4.85,6.43E−05,7.54E+04,6.43E−05,,,
CC1=CC2CC(C=O)C1CC2C(C)C (centres unmarked) [8-ISOPROPYL-6-METHYL-BICYCLO[2.2.2]OCT-5-ENE-2-CARBALDEHYDE],131.02,"TOP (perfuming compounds having a volatility ranging from 70,000 to 100 μg/l in air are referred to as “top notes”)",Top,131.02,7.11E−05,1.84E+06,7.11E−05,,,
C=CCCCCCCCCO [9-DECEN-1-OL],,,,,,,,26.88,Bottom,"Volatility (μg/l air) ([1]; Table 7, citrus note): 26.88 μg/l air; Type [1, 9]: Bottom; Odor Threshold [2, 7]: 8.92E−03 μg/l air; Odor Value [2, 7]: 3.01E+03; Odor Threshold (μg/l air) ([2]; Table 7, citrus note): 8.92E−03 μg/l air; Odor Value [2, 10]: 3.01E+03"
C=CCCCCCCCCC=O [10-undecenal],136.73,"TOP (perfuming compounds having a volatility ranging from 70,000 to 100 μg/l in air are referred to as “top notes”)",,,3.15E−03,4.34E+04,,,,
"C[C@@H]1CC[C@@H](C(C)(C)S)C(=O)C1 [(1R,4R)-8-MERCAPTO-3-P-MENTHANONE]",,,Top,155.12,,,3.43E−05,155.12,"TOP (perfuming compounds having a volatility ranging from 70,000 to 100 μg/l in air are referred to as “top notes”)",
CC(C)OCCc1ccccc1 [(2-ISOPROPOXYETHYL)BENZENE],,,Top,,,,1.65E−03,,,Volatility (μg/l air) [1]: 1714.82 μg/l air
CCC/C=C/C=O [(2E)-2-HEXENAL],,,Top,33708.26,,,2.53E−03,33708.26,"TOP (perfuming compounds having a volatility ranging from 70,000 to 100 μg/l in air are referred to as “top notes”)","Volatility (μg/l air) ([1]; Table 7, citrus note): 33708.26 μg/l air; Type [1, 9]: Top; Odor Threshold (μg/l air) ([2]; Table 7, citrus note): 2.53E−03 μg/l air; Odor Value [2, 10]: 1.33E+07"
CCCCCC/C(C=O)=C\c1ccccc1 [(2E)-2-benzylideneoctanal],,,Bottom,1.15,,,1.91E−03,1.15,Bottom,"Odor Threshold [2, 7]: 1.91E−03 μg/l air; Odor Value [2, 7]: 6.01E+02"
"CC/C=C\CC/C=C/CO [(2E,6Z)-2,6-NONADIEN-1-OL]",98.76,middle (perfuming compounds having a volatility ranging from 99 to 50 μg/l in air are referred to as “middle notes”),Middle,98.76,3.22E−06,3.07E+07,3.22E−06,,,
"CC/C=C\CC/C=C/C=O [(2E,6Z)-2,6-NONADIENAL]",,,Top,632.43,,,1.46E−04,,,
"CC/C=C\CC/C=C/C=O [(2E,6Z)-2,6-NONADIENAL″]",632.43,"TOP (perfuming compounds having a volatility ranging from 70,000 to 100 μg/l in air are referred to as “top notes”)",,,1.46E−04,4.34E+06,,,,
"CC(=O)OC/C=C(/C)CCC=C(C)C [(2Z)-3,7-dimethyl-2,6-octadien-1-yl acetate]",123.21,"TOP (perfuming compounds having a volatility ranging from 70,000 to 100 μg/l in air are referred to as “top notes”)",,,6.02E−02,2.05E+03,,123.21,"TOP (perfuming compounds having a volatility ranging from 70,000 to 100 μg/l in air are referred to as “top notes”)","Odor Threshold [2, 7]: 6.02E−02 μg/l air; Odor Value [2, 7]: 2.05E+03"
"CC(=O)/C=C/C1=C(C)CCCC1(C)C [(3E)-4-(2,6,6-trimethyl-1-cyclohexen-1-yl)-3-buten-2-one]",,,,,,,,,,"Type ([1]; Table 10, perfuming compounds having a woody note, note type by volatility): Bottom; Volatility ([1]; Table 10, woody note): 35.41 μg/l air; Odor Threshold ([2]; Table 10, woody note): 3.58E−05 μg/l air"
CC/C=C\CCOC(=O)C/C=C\CC [(3Z)-3-hexen-1-yl (3Z)-3-hexenoate],,,Top,210.68,,,5.17E−02,210.68,"TOP (perfuming compounds having a volatility ranging from 70,000 to 100 μg/l in air are referred to as “top notes”)","Volatility [1, 11]: 210.68 μg/l air; Type ([1]; Table 8, perfuming compounds having a sweet note, note type by volatility): Top; Volatility ([1]; Table 9, gourmand note): 210.68 μg/l air; Type ([1]; Table 9, perfuming compounds having a gourmand note, note type by volatility): Top; Odor Threshold [2, 11]: 5.17E−02 μg/l air; Odor Value [2, 11]: 4.08E+03; Odor Threshold ([2]; Table 9, gourmand note): 5.17E−02 μg/l air"
CC/C=C\CCOC(=O)c1ccccc1 [(3Z)-3-hexen-1-yl benzoate],,,Bottom,11.05,,,4.37E−02,11.05,Bottom,"Volatility (μg/l air) ([1]; Table 7, citrus note): 11.05 μg/l air; Type [1, 9]: Bottom; Odor Threshold [2, 7]: 4.37E−02 μg/l air; Odor Value [2, 7]: 2.53E+02; Odor Threshold (μg/l air) ([2]; Table 7, citrus note): 4.37E−02 μg/l air; Odor Value [2, 10]: 2.53E+02"
CC/C=C\CCOC(=O)CCC [(3Z)-3-hexen-1-yl butyrate],,,Top,1674.15,,,7.85E−02,1674.15,"TOP (perfuming compounds having a volatility ranging from 70,000 to 100 μg/l in air are referred to as “top notes”)",
CC/C=C\CCOC(=O)c1ccccc1O [(3Z)-3-hexen-1-yl salicylate],,,Bottom,4.34,,,3.23E−04,,,
CC/C=C\CCOC(=O)OC [(3Z)-hex-3-en-1-yl methyl carbonate],,,Top,1506.33,,,4.58E−02,1506.33,"TOP (perfuming compounds having a volatility ranging from 70,000 to 100 μg/l in air are referred to as “top notes”)",
